Target: T1, IC-GPCR2 (Homo sapiens, UniProt Q8TDV5, S309L)
T1 construct: expressed in transfected cells
T1 sequence (Q8TDV5 1-335 S309L): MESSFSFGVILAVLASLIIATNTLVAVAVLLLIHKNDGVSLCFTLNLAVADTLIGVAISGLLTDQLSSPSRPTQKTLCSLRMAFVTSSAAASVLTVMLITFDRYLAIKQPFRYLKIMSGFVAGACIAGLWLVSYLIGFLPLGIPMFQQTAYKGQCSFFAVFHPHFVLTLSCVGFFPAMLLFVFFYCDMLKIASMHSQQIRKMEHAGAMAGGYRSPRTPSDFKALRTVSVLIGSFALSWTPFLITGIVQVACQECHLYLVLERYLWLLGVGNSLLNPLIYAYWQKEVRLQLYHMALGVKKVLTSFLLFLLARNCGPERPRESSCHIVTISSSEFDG
Assay: Stimulation of cAMP in CHO cells stably expressing IC-GPCR2 (HTRF cAMP assay)
Assay type: cell-based
Details: 0.5 h, 30 minutes, IC-GPCR2 stably expressing CHO cells, read-out: Activity at 10 uM (% change in FRET signal from DMSO control)
Procedure: This assay was developed using a stable cell line expressing IC-GPCR-2, generated as follows. IC-GPCR2 (SEQ ID NO:1) was cloned into Gateway pDEST 40vector (Invitrogen), using the Gateway cloning system (invitrogen) according to the manufacturer's instructions. A stable cell line was generated by transfecting a 10 cm plate of CHO cells (source) with 8 ug of this construct using Transit-CHO transfection kit (Mirus). CHO cells were plated the day prior to transfection at a density of 3,000,000 cells/plate. Clones were selected using the antibiotic G418 at 500 ug/ml. 23 clones were picked and assayed for the expression of the receptor by measuring changes in intracellular cAMP levels in response to an IC-GPCR2 agonist.
To measure cAMP activity in response to IC-GPCR2 agonist, the clones were plated in 96 well plates at 17500 cells per well. On the day after plating, cells were incubated with the IC-CPCR2 agonist at […] for 30 minutes in Ham's F12 Media (Gibco) with 0.04% DMSO. cAMP was measured using the cAMP dynamic kit from Cis Bio (Bedford, Mass.) according to the manufacturer's instructions. Briefly, cells were lysed, and cAMP levels determined by competitive immunoassay using D2 labeled cAMP, and europium cryptate tagged anti cAMP antibody. When in close proximity, the D2 and europium cryptate undergo fluorescence resonance energy transfer (FRET), which is measured as a fluorescence ratio (665 nm/620 nm). Unlabelled cAMP in the cell lysate competed with the D2 labeled cAMP for the europium crypate labeled antibody. The resulting decrease in FRET signal corresponded to intracellular cAMP levels. Fluorescence was read on a BMG Labtech PHERAstar, software version 1.50.
Compounds were dissolved in 100% DMSO to a concentration of […] to provide stock solutions. To determine activity against IC-GPCR2, compounds were incubated with IC-GPCR2 stably expressing cells (described above), at 6-8 concentrations ranging from 0.00003 to 10 micromolar, in 96 well plates, in 50 ul of Hams F12 media for 30 minutes. Cells were plated at 17500 cells per well 1 day before running the assay. All compounds were also screened against the parental CHO cells. cAMP was measured using the cAMP dynamic kit from Cis Bio (Bedford, Mass.), according to the manufacturer's instructions. Briefly, cells were lysed and cAMP levels determined by competitive immunoassay using D2 labeled cAMP, and europium cryptate tagged anti cAMP antibody. When in close proximity, the D2 and europium cryptate undergo fluorescence resonance energy transfer (FRET), which is measured as a fluorescence ratio (665 nm/620 nm). Unlabelled cAMP in the cell lysate competed with the D2 labeled cAMP for the europium crypate labeled antibody. The resulting decrease in FRET signal corresponded to intracellular cAMP levels.
Activities of compounds disclosed in Table 1 and Table 2 below are expressed as the % change in FRET signal from DMSO control. “*” no activity observed when tested at 10 micromolar but no higher concentrations were tested. NT indicates the compound was not tested at the indicated concentration.

Compound	activation at 10 µM
CS(=O)(=O)c1ccc(OCc2csc(C3CCN(C(=O)C45CC6CC(CC(C6)C4)C5)CC3)n2)cc1 [Example 39, Adamantan-1-yl-{4-[4-(4-methanesulfonyl-phenoxymethyl)-thiazol-2-yl]-piperidin-1-yl}-methanone]	9%
CN1CCN(C(=O)N2CCC(c3nc(COc4ccc(-n5cnnn5)cc4)cs3)CC2)CC1 [Example 44, (4-Methyl-piperazin-1-yl)-{4-[4-(4-tetrazol-1-yl-phenoxymethyl)-thiazol-2-yl]-piperidin-1-yl}-methanone]	53%
CS(=O)(=O)c1ccc(OCc2csc(C3CCN(c4ncccn4)CC3)n2)cc1 [Example 47, 2-{4-[4-(4-Methanesulfonyl-phenoxymethyl)-thiazol-2-yl]-piperidin-1-yl}-pyrimidine]	51%
CCc1cnc(N2CCC(c3nc(COc4ccc(S(C)(=O)=O)cc4)cs3)CC2)nc1 [Example 51, 5-Ethyl-2-{4-[4-(4-methanesulfonyl-phenoxymethyl)-thiazol-2-yl]-piperidin-1-yl}-pyrimidine]	57%
Brc1cnc(N2CCC(c3nc(COc4ccc(-n5cnnn5)cc4)cs3)CC2)nc1 [Example 54, 5-Bromo-2-{4-[4-(4-tetrazol-1-yl-phenoxymethyl)-thiazol-2-yl]-piperidin-1-yl}-pyrimidine]	58%
Fc1cnc(N2CCC(c3nc(COc4ccc(-n5cnnn5)cc4)cs3)CC2)nc1 [Example 55, 5-Fluoro-2-{4-[4-(4-tetrazol-1-yl-phenoxymethyl)-thiazol-2-yl]-piperidin-1-yl}-pyrimidine]	66%
Cc1cnc(N2CCC(c3nc(COc4ccc(-n5cnnn5)cc4)cs3)CC2)nc1Cl [Example 57, 4-Chloro-5-methyl-2-{4-[4-(4-tetrazol-1-yl-phenoxymethyl)-thiazol-2-yl]-piperidin-1-yl}-pyrimidine]	7%
Clc1ccc(-c2cnc(N3CCC(c4nc(COc5ccc(-n6cnnn6)cc5)cs4)CC3)nc2)cc1 [Example 59]	70%
Clc1cnc(N2CCC(c3nc(COc4ccc(-n5cnnn5)cc4)cs3)CC2)nc1 [Example 60]	60%
COc1ccc(-c2cnc(N3CCC(c4nc(COc5ccc(-n6cnnn6)cc5)cs4)CC3)nc2)cc1 [Example 66, 5-(4-Methoxy-phenyl)-2-{4-[4-(4-tetrazol-1-yl-phenoxymethyl)-thiazol-2-yl]-piperidin-1-yl}-pyrimidine]	57%
COc1cnc(N2CCC(c3nc(COc4ccc(-n5cnnn5)cc4)cs3)CC2)nc1 [Example 68, 5-Methoxy-2-{4-[4-(4-tetrazol-1-yl-phenoxymethyl)-thiazol-2-yl]-piperidin-1-yl}-pyrimidine]	53%
Cc1ccc(N2CCC(c3nc(COc4ccc(-n5cnnn5)cc4)cs3)CC2)nc1 [Example 69, 5′-Methyl-4-[4-(4-tetrazol-1-yl-phenoxymethyl)-thiazol-2-yl]-3,4,5,6-tetrahydro-2H-[1,2′]bipyridinyl]	74%
FC(F)(F)c1ccc(N2CCC(c3nc(COc4ccc(-n5cnnn5)cc4)cs3)CC2)nc1 [Example 71, 4-[4-(4-Tetrazol-1-yl-phenoxymethyl)-thiazol-2-yl]-5′-trifluoromethyl-3,4,5,6-tetrahydro-2H-[1,2′]bipyridinyl]	88%
O=Cc1ccc(N2CCC(c3nc(COc4ccc(-n5cnnn5)cc4)cs3)CC2)nc1 [Example 72, 4-[4-(4-Tetrazol-1-yl-phenoxymethyl)-thiazol-2-yl]-3,4,5,6-tetrahydro-2H-[1,2′]bipyridinyl-5′-carbaldehyde]	78%
CS(=O)(=O)c1ccc(OCc2csc(C3CCN(c4nc5ccccc5o4)CC3)n2)cc1 [Example 74, 2-{4-[4-(4-Methanesulfonyl-phenoxymethyl)-thiazol-2-yl]-piperidin-1-yl}-benzooxazole]	17%
CCc1cnc(N2CCC(c3nc(COc4ccc(S(C)(=O)=O)cc4F)cs3)CC2)nc1 [Example 76, 5-Ethyl-2-{4-[4-(2-fluoro-4-methanesulfonyl-phenoxymethyl)-thiazol-2-yl]-piperidin-1-yl}-pyrimidine]	74%

Other lines, results leading:

activation at 10 µM	Compound
21%	CS(=O)(=O)c1ccc(OCc2csc(C3CCN(C(=O)c4cccnc4)CC3)n2)cc1 [Example 40, {4-[4-(4-Methanesulfonyl-phenoxymethyl)-thiazol-2-yl]-piperidin-1-yl}-pyridin-3-yl-methanone]
75%	CC(C)(C)CC(=O)N1CCC(c2nc(COc3ccc(-n4cnnn4)cc3)cs2)CC1 [Example 41, 3,3-Dimethyl-1-{4-[4-(4-tetrazol-1-yl-phenoxymethyl)-thiazol-2-yl]-piperidin-1-yl}-butan-1-one]
67%	COC(=O)C(=O)N1CCC(c2nc(COc3ccc(-n4cnnn4)cc3)cs2)CC1 [Example 42, Oxo-{4-[4-(4-tetrazol-1-yl-phenoxymethyl)-thiazol-2-yl]-piperidin-1-yl}-acetic acid methyl ester]
47%	CCOC(=O)CC(=O)N1CCC(c2nc(COc3ccc(-n4cnnn4)cc3)cs2)CC1 [Example 43, 3-Oxo-3-{4-[4-(4-tetrazol-1-yl-phenoxymethyl)-thiazol-2-yl]-piperidin-1-yl}-propionic acid ethyl ester]
84%	CCN(CC)C(=O)N1CCC(c2nc(COc3ccc(-n4cnnn4)cc3)cs2)CC1 [Example 45, 4-[4-(4-Tetrazol-1-yl-phenoxymethyl)-thiazol-2-yl]-piperidine-1-carboxylic acid diethylamide]
30%	CCNC(=O)N1CCC(c2nc(COc3ccc(-n4cnnn4)cc3)cs2)CC1 [Example 46, 4-[4-(4-Tetrazol-1-yl-phenoxymethyl)-thiazol-2-yl]-piperidine-1-carboxylic acid ethylamide]
43%	CC(C)(C)OC(=O)N1CCC(C)(c2nc(COc3ccc(S(C)(=O)=O)cc3)cs2)CC1 [Example 78, 4-[4-(4-Methanesulfonyl-phenoxymethyl)-thiazol-2-yl]-4-methyl-piperidine-1-carboxylic acid tert-butyl ester]
59%	CC(C)(C)OC(=O)N1CCC(c2nc(COc3ccc(S(C)(=O)=O)cc3)no2)CC1 [Example 81, 4-[3-(4-Methanesulfonyl-phenoxymethyl)-[1,2,4]oxadiazol-5-yl]-piperidine-1-carboxylic acid tert-butyl ester]
27%	CC(C)(C)OC(=O)N1CCC(c2noc(COCc3ccccc3)n2)CC1 [Example 83, 4-(5-Benzyloxymethyl-[1,2,4]oxadiazol-3-yl)-piperidine-1-carboxylic acid tert-butyl ester]
59%	CCc1cnc(N2CCC(c3nc(COc4ccc(S(C)(=O)=O)cc4)no3)CC2)nc1 [Example 84, 5-Ethyl-2-{4-[3-(4-methanesulfonyl-phenoxymethyl)-[1,2,4]oxadiazol-5-yl]-piperidin-1-yl}-pyrimidine]
49%	CC(C)(C)OC(=O)N1CCC(O)(c2nc(COc3ccc(S(C)(=O)=O)cc3)cs2)CC1 [Example 86, 4-Hydroxy-4-[4-(4-methanesulfonyl-phenoxymethyl)-thiazol-2-yl]-piperidine-1-carboxylic acid tert-butyl ester]

Same assay, conditions: 30 minutes, IC-GPCR2 stably expressing CHO cells

Activity at 10 uM (% change in FRET signal from DMSO control)	Compound
67%	CCc1cnc(N2CCC(c3nc(COc4ccc(-n5cnnn5)cc4)cs3)CC2)nc1 [Example 52, 5-Ethyl-2-{4-[4-(4-tetrazol-1-yl-phenoxymethyl)-thiazol-2-yl]-piperidin-1-yl}-pyrimidine]

— US9925189B2, “Heterocyclic receptor agonists for the treatment of diabetes and metabolic disorders” (CymaBay Therapeutics, Inc., priority 2006, dated 2018)
